Measurements published in ChEMBL document CHEMBL1641372 (Bioorg Med Chem Lett, 2011).

Key:
[1] = molecular target: 5-hydroxytryptamine receptor 4 (Homo sapiens) (UniProt Q13639); assay: Inhibition of 5HT4 receptor at 1 uM
[2] = molecular target: T1, 5-hydroxytryptamine receptor 1A (Homo sapiens) (UniProt P08908); assay: Inhibition of 5HT1A receptor at 1 uM
T1 sequence (whole entry): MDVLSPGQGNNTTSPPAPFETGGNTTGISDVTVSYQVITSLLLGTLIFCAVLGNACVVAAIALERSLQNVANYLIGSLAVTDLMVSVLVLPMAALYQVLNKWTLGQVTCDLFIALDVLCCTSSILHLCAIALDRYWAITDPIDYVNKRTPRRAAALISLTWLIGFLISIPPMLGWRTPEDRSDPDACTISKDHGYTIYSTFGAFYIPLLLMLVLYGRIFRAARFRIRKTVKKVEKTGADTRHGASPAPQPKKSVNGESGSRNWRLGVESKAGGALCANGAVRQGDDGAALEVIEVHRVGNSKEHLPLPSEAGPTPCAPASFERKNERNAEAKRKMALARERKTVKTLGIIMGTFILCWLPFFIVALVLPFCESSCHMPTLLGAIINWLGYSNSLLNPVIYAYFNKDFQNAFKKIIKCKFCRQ

[3] = molecular target: T2, 5-hydroxytryptamine receptor 3A (Homo sapiens, UniProt P46098); assay: Binding affinity to human 5HT3A receptor; type: single protein
T2 sequence (P46098 whole entry): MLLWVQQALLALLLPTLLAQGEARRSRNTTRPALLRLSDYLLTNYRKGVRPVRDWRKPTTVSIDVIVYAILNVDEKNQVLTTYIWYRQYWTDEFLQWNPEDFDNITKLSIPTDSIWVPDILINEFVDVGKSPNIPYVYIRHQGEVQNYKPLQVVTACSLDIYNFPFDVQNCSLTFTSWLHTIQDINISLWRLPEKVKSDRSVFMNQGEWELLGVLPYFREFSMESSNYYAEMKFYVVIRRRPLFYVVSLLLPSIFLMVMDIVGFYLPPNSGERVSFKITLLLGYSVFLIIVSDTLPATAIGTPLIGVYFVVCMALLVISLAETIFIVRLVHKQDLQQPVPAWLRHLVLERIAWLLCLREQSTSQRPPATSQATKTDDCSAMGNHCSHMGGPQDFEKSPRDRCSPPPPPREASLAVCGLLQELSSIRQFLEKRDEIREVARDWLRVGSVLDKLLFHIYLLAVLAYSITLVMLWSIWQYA

Cytochrome P450 3A4 = Cytochrome P450 3A4 (Homo sapiens, UniProt P08684); assay: Inhibition of human CYP3A4; type: ADME
[4] = Intrinsic clearance in human liver microsomes assessed per mg of protein; type: ADME, Microsome
[5] = Inhibition of human CYP450; type: ADME
Mus musculus = assay: Partial agonist activity at 5HT3 receptor in po dosed mouse assessed inhibition of serotonin-induced bradycardia administered 1 hr before serotonin challenge by von Bezold-Jarisch reflex test; type: functional
[6] = molecular target: T2, 5-hydroxytryptamine receptor 3A; assay: Partial agonist activity at human 5HT3A receptor expressed in HEK293 cells assessed as decrease in 10 uM 5-chloroindole-induced increase in intracellular calcium release; type: functional, cell-based
[7] = molecular target: T2, 5-hydroxytryptamine receptor 3A; assay: Partial agonist activity at human 5HT3A receptor expressed in HEK293 cells assessed as effect on serotonin-induced response; type: functional, cell-based
[8] = Solubility of the compound at pH 7.4 phosphate buffered saline; type: physicochemical

Sequence of Cytochrome P450 3A4 (P08684 whole entry): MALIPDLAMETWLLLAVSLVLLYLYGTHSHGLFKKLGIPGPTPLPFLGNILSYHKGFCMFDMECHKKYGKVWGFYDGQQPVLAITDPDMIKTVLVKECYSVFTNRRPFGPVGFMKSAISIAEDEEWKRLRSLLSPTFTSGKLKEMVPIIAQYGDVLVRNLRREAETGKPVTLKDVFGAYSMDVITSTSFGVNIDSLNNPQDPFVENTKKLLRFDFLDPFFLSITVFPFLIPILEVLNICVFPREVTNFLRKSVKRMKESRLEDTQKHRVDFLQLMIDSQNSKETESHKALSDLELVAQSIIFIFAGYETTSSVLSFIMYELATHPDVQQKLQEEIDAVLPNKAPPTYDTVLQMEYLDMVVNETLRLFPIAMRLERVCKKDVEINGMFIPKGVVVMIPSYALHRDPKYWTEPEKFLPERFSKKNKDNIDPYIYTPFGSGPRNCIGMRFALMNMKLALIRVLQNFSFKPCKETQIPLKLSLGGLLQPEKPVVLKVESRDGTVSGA
Sequence of 5-hydroxytryptamine receptor 4 (Homo sapiens) (Q13639 whole entry): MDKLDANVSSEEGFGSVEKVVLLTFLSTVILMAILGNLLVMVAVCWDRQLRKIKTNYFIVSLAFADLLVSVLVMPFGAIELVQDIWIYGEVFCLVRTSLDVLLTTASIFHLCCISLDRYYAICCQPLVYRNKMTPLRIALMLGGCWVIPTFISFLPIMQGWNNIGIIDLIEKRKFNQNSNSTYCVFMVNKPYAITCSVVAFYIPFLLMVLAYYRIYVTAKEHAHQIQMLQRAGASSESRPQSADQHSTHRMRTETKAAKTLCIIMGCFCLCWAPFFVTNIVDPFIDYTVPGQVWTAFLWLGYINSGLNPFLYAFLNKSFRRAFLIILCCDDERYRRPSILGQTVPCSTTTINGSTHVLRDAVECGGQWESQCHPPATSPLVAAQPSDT

**Q.** With `O=C1c2cccc3[nH]nc(c23)CN1[C@@H]1CN2CCC1CC2` as the molecule, how does the inhibition [1] read?
**A.** > 50%

**Q.** What about the inhibition [2] of the same molecule?
**A.** > 50%

**Q.** With `CC(C)Cn1nc2c3c(cccc31)C(=O)N([C@@H]1CN3CCC1CC3)C2` as the molecule, how does the Ki [3] read?
**A.** 2.4 nM

**Q.** With `Cn1cc2c3c(cccc31)C(=O)N([C@H]1CN3CCC1CC3)C2` as the molecule, how does the Ki [3] read?
**A.** 0.9 nM

**Q.** Which IC50 (Cytochrome P450 3A4) does the source give for `O=C1c2cccc3[nH]nc(c23)CN1[C@H]1CN2CCC1CC2` here?
**A.** < 10000 nM

**Q.** And the inhibition [1]?
**A.** > 50%

**Q.** And the microsomal CLint [4]?
**A.** 7.3 µL/min/mg

**Q.** And the IC50 [5]?
**A.** > 50000 nM

**Q.** And the ED50 (Mus musculus)?
**A.** 0.64 mg/kg

**Q.** And the inhibition [2]?
**A.** > 50%

**Q.** For `Cc1[nH]cnc1CN1CCc2c(c3ccccc3n2C)C1=O` [ALOSETRON], which ED50 (Mus musculus) is on record?
**A.** 0.02 mg/kg

**Q.** With `O=C(N[C@H]1CN2CCC1CC2)c1c[nH]c2ccsc2c1=O` [PUMOSETRAG] as the molecule, how does the IC50 (Cytochrome P450 3A4) read?
**A.** 9300 nM

**Q.** What about the microsomal CLint [4] of the same molecule?
**A.** 24 µL/min/mg

**Q.** What about the EC50 [6] of the same molecule?
**A.** 9.2 nM

**Q.** And the ED50 (Mus musculus)?
**A.** 0.96 mg/kg

**Q.** What about the EC50 [7] of the same molecule?
**A.** 5.4 nM

**Q.** Which Ki [3] does the source give for `CCn1nc2c3c(cccc31)C(=O)N([C@@H]1CN3CCC1CC3)C2` here?
**A.** 1.6 nM

**Q.** Which Ki [3] does the source give for `Cn1nc2c3c(cc(F)cc31)C(=O)N([C@H]1CN3CCC1CC3)C2` here?
**A.** 2 nM

**Q.** Which Ki [3] does the source give for `CCn1nc2c3c(cccc31)C(=O)N([C@H]1CN3CCC1CC3)C2` here?
**A.** 2 nM

**Q.** For `Cn1cc2c3c(cccc31)C(=O)N([C@@H]1CN3CCC1CC3)C2`, which Ki [3] is on record?
**A.** 0.7 nM

**Q.** With `Cn1nc2c3c(cccc31)C(=O)N([C@@H]1CN3CCC1CC3)C2` as the molecule, how does the Ki [3] read?
**A.** 0.7 nM

**Q.** Which results are given for `Cn1nc2c3c(cccc31)C(=O)N([C@H]1CN3CCC1CC3)C2`?
**A.** IC50 (Cytochrome P450 3A4): < 10000 nM; solubility [8]: > 500 µM; Ki [3]: 1.7 nM; microsomal CLint [4]: 3.8 µL/min/mg; IC50 [5]: > 50000 nM; EC50 [6]: 6.9 nM; ED50 (Mus musculus): 0.25 mg/kg; EC50 [7]: 12.6 nM

**Q.** With `O=C1c2cccc3c2c(nn3Cc2ccccc2)CN1[C@H]1CN2CCC1CC2` as the molecule, how does the Ki [3] read?
**A.** 7.1 nM
